These results are taken from patent US8377974B2 (Millennium Pharmaceuticals, Inc., priority 2004, dated 2013).

Molecules are shown by their SMILES.

T1 sequence (P00742 235-488 limits assumed): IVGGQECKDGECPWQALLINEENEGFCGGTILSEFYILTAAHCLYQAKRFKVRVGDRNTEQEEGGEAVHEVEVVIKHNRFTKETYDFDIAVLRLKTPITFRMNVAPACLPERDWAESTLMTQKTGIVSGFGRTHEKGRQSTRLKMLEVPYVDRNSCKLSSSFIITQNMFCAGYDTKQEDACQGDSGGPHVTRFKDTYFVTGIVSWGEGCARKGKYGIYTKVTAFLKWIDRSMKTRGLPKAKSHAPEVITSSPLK
T1 sequence (P00742 41-179 partner limits assumed): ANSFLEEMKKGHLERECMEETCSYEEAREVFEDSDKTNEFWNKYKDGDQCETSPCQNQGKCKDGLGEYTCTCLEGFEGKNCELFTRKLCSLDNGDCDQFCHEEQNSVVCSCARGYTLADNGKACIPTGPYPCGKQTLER

This test concerns the target T1, human plasma protein factor Xa (Homo sapiens, UniProt P00742).
T1 construct: measure proteolytic activity of the enzyme (factor Xa); purchased Haematologic Technologies (Essex Junction, Vt.); host or cells: human plasma
Briefly: Factor Xa IC50 determination: cleavage of paranitroanilide substrate S-2765 in 96-well plates. In kind it is biochemical. Conditions: fXa 1 nM, S-2765 100 μM, Tris buffered saline pH 7.4, room temperature. In outline:
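Human plasma factor Xa (1 nM) preincubated 5 min at room temperature with inhibitor (0.01 nM–10 μM final) in Tris-buffered saline pH 7.4 with 5 mM CaCl2, 0.1% BSA, 5% DMSO. S-2765 at 100 μM final; hydrolysis at 405 nm over 2 min. IC50 from 4-parameter fit of initial velocities.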
Turning to `O=C(NCC1CC(c2ccc(Nc3cccnc3)cc2)=NO1)c1ccc(Cl)s1` (stereo not shown) [Example 225, 5-Chloro-thiophene-2-carboxylic acid {3-[4-(pyridin-3-ylamino)-phenyl]-4,5-dihydro-isoxazol-5-ylmethyl}-amide], the half-inhibitory concentration (IC50) (in general, the midpoint of a concentration-inhibition curve) was not above 100 nM.
`COCCN(C)c1cc(C(=N)N2CCCC2)ccc1C1=NOC(CNC(=O)c2ccc(Cl)s2)C1` (stereo not shown) [Example 88, 5-Chloro-thiophene-2-carboxylic acid (3-{4-(imino-pyrrolidin-1-yl-methyl)-2-[(2-methoxy-ethyl)-methyl-amino]-phenyl}-4,5-dihydro-isoxazol-5-ylmethyl)-amide]: the IC50 lay in the range of 100 to 500 nM.
The value for `COc1ccc(-c2ccc(-c3cc(CNC(=O)c4ccc(Cl)s4)on3)cc2)c(CN2CCCC2)c1` [Example 218, 5-Chloro-thiophene-2-carboxylic acid [3-(4′-methoxy-2′-pyrrolidin-1-ylmethyl-biphenyl-4-yl)-isoxazol-5-ylmethyl]-amide] was not above 100 nM; that for `O=C(NCC1CC(c2ccc(-n3cccc(Cl)c3=O)cc2)=NO1)c1ccc(Cl)s1` (stereo not shown) [Example 283, 5-Chloro-N-((3-(4-(3-chloro-2-oxopyridin-1(2H)-yl)phenyl)-4,5-dihydroisoxazol-5-yl)methyl)thiophene-2-carboxamide] was not above 100 nM; that for `N=C(c1ccc(-c2cc(CNC(=O)c3ccc(Cl)s3)no2)cc1)N1CCCCC1` [Example 333, 5-Chloro-N-((5-(4-(imino(piperidin-1-yl)methyl)phenyl)isoxazol-3-yl)methyl)thiophene-2-carboxamide] was not above 100 nM.
In turn, `COc1cccn(-c2ccc(-n3cc(CNC(=O)c4ccc(Cl)s4)nn3)cc2)c1=O` [Example 294, 5-Chloro-N-((1-(4-(3-methoxy-2-oxopyridin-1(2H)-yl)phenyl)-1H-1,2,3-triazol-4-yl)methyl)thiophene-2-carboxamide] gave an IC50 not above 100 nM.
The figure for `Cc1ccc(C2=NOC(CNC(=O)c3ccc(Cl)s3)C2)cc1` (stereo not shown) [Example 147, 5-Chloro-thiophene-2-carboxylic acid (3-p-tolyl-4,5-dihydro-isoxazol-5-ylmethyl)-amide] is not below 500 nM; for `N=C(c1ccc(C2=NOC(CNC(=O)c3ccc(Cl)s3)C2)c(N2CCCCCC2)c1)N1CCCC1` (stereo not shown) [Example 92, 5-Chloro-thiophene-2-carboxylic acid {3-[2-azepan-1-yl-4-(imino-pyrrolidin-1-yl-methyl)-phenyl]-4,5-dihydro-isoxazol-5-ylmethyl}-amide] it is not above 100 nM; for `CN(Cc1ccco1)C(=N)c1ccc(-c2cc(CNC(=O)c3ccc(Cl)s3)on2)cc1` [Example 31, 5-Chloro-thiophene-2-carboxylic acid {3-[4-(N-furan-2-ylmethyl-N-methyl-carbamimidoyl)-phenyl]-isoxazol-5-ylmethyl}-amide] it is not above 100 nM.
Regarding `O=C(NCc1cn(-c2ccc(N3CCOCC3=O)nc2)nn1)c1ccc(Cl)s1` [Example 387, 5-Chloro-N-((1-(6-(3-oxomorpholino)pyridin-3-yl)-1H-1,2,3-triazol-4-yl)methyl)thiophene-2-carboxamide], the IC50 is not above 100 nM.
The figure for `CC1(CNC(=O)c2ccc(Cl)s2)CC(c2ccc(C(=N)N3CCC3)cc2)=NO1` (stereo not shown) [Example 62, 5-Chloro-thiophene-2-carboxylic acid {3-[4-(azetidin-1-yl-imino-methyl)-phenyl]-5-methyl-4,5-dihydro-isoxazol-5-ylmethyl}-amide] is not above 100 nM; for `Cn1ccc(Nc2ccc(C3=NOC(CNC(=O)c4ccc(Cl)s4)C3)cc2)n1` (stereo not shown) [Example 233, 5-Chloro-thiophene-2-carboxylic acid {3-[4-(1-methyl-1H-pyrazol-3-ylamino)-phenyl]-4,5-dihydro-isoxazol-5-ylmethyl}-amide] it is 100 to 500 nM.
Turning to `O=C(NCC1CC(c2ccc(Nc3ccccc3)cc2)=NO1)c1ccc(Cl)s1` (stereo not shown) [Example 222, 5-Chloro-thiophene-2-carboxylic acid [3-(4-phenylamino-phenyl)-4,5-dihydro-isoxazol-5-ylmethyl]-amide], the 50% inhibitory concentration (IC50) was not below 500 nM.
The value for `COc1ccc(Oc2cc(C3=NCCN3C)ccc2-c2cc(CNC(=O)c3ccc(Cl)s3)on2)cc1` [Example 134, 5-Chloro-thiophene-2-carboxylic acid {3-[2-(4-methoxy-phenoxy)-4-(1-methyl-4,5-dihydro-1H-imidazol-2-yl)-phenyl]-isoxazol-5-ylmethyl}-amide] was not above 100 nM.
`C#CCN(C)C(=N)c1ccc(C2=NOC(CNC(=O)c3ccc(Cl)s3)C2)cc1` (stereo not shown) [Example 13, 5-Chloro-thiophene-2-carboxylic acid {3-[4-(N-methyl-N-prop-2-ynyl-carbamimidoyl)-phenyl]-4,5-dihydro-isoxazol-5-ylmethyl}-amide] gave an IC50 of 100 to 500 nM.
The value for `O=C(NCc1cn(-c2ccc(N3CCNCC3)nc2)nn1)c1ccc(Cl)s1` [Example 390, 5-Chloro-N-((1-(6-(piperazin-1-yl)pyridin-3-yl)-1H-1,2,3-triazol-4-yl)methyl)thiophene-2-carboxamide] was 100 to 500 nM; that for `CN(C)C(=N)c1ccc(-c2cc(CNC(=O)c3ccc(Cl)s3)on2)cc1` [Example 21, 5-Chloro-thiophene-2-carboxylic acid {3-[4-(N,N-dimethyl-carbamimidoyl)-phenyl]-isoxazol-5-ylmethyl}-amide] was not above 100 nM; that for `O=C(NCc1cn(-c2ccc(N3CCSCC3=O)cc2)nn1)c1ccc(Cl)s1` [Example 302, 5-Chloro-N-((1-(4-(3-oxothiomorpholino)phenyl)-1H-1,2,3-triazol-4-yl)methyl)thiophene-2-carboxamide] was not above 100 nM.
The figure for `Cc1ccn(-c2ccc(-n3cc(CNC(=O)c4ccc(Cl)s4)nn3)cc2)c(=O)c1` [Example 295, 5-Chloro-N-((1-(4-(4-methyl-2-oxopyridin-1(2H)-yl)phenyl)-1H-1,2,3-triazol-4-yl)methyl)thiophene-2-carboxamide] is not above 100 nM.
`N=C(c1ccc(C2=NOC(CNC(=O)c3ccc(Cl)s3)C2)cc1)N1CCCC1` (stereo not shown) [Example 10, 5-Chloro-thiophene-2-carboxylic acid {3-[4-(imino-pyrrolidin-1-yl-methyl)-phenyl]-4,5-dihydro-isoxazol-5-ylmethyl}-amide]: the IC50 is not above 100 nM.
The value for `CN1CCN=C1c1ccc(C2=NOC(CNC(=O)c3ccc(Cl)s3)C2)c(N2CCOCC2)c1` (stereo not shown) [Example 83, 5-Chloro-thiophene-2-carboxylic acid {3-[4-(1-methyl-4,5-dihydro-1H-imidazol-2-yl)-2-morpholin-4-yl-phenyl]-4,5-dihydro-isoxazol-5-ylmethyl}-amide] was 100 to 500 nM; that for `CSc1cc(C(=N)N(C)C)ccc1-c1cc(CNC(=O)c2ccc(Cl)s2)on1` [Example 140, 5-Chloro-thiophene-2-carboxylic acid {3-[4-(N,N-dimethyl-carbamimidoyl)-2-methylsulfanyl-phenyl]-isoxazol-5-ylmethyl}-amide] was not above 100 nM.
The value for `CCOC(=O)C1CCN(C(=N)c2ccc(-c3nc(CNC(=O)c4ccc(Cl)s4)cs3)cc2)CC1` [Example 354, Ethyl 1-((4-(4-((2-chlorothiophene-5-carboxamido)methyl)thiazol-2-yl)phenyl)(imino)methyl)piperidine-4-carboxylate] was 100 to 500 nM.
The value for `CC1CCCN1C(=O)c1ccc(C2=NOC(CNC(=O)c3ccc(Cl)s3)C2)cc1` (stereo not shown) [Example 165, 5-Chloro-thiophene-2-carboxylic acid {3-[4-(2-methyl-pyrrolidine-1-carbonyl)-phenyl]-4,5-dihydro-isoxazol-5-ylmethyl}-amide] was 100 to 500 nM.
`O=C(NCc1cn(-c2ccc(N3CCOCC3=O)cc2F)nn1)c1ccc(Cl)s1` [Example 306, 5-Chloro-N-((1-(2-fluoro-4-(3-oxomorpholino)phenyl)-1H-1,2,3-triazol-4-yl)methyl)thiophene-2-carboxamide] had an IC50 not above 100 nM.
The value for `N=C(c1ccc(-c2cc(CNC(=O)c3ccc(Cl)s3)on2)c(N2CCOCC2)c1)N1CCCCC1` [Example 101, 5-Chloro-thiophene-2-carboxylic acid {3-[4-(imino-piperidin-1-yl-methyl)-2-morpholin-4-yl-phenyl]-isoxazol-5-ylmethyl}-amide] was not above 100 nM.
The figure for `COC(=O)c1ccc(C2=NOC(CNC(=O)c3ccc(Cl)s3)C2)cc1` (stereo not shown) [Example 156, 4-(5-{[(5-Chloro-thiophene-2-carbonyl)-amino]-methyl}-4,5-dihydro-isoxazol-3-yl)-benzoic acid methyl ester] is not below 500 nM; for `CN(C)CCN(C)c1ccc(C2=NOC(CNC(=O)c3ccc(Cl)s3)C2)cc1` (stereo not shown) [Example 238, 5-Chloro-thiophene-2-carboxylic acid (3-{4-[(2-dimethylamino-ethyl)-methyl-amino]-phenyl}-4,5-dihydro-isoxazol-5-ylmethyl)-amide] it is 100 to 500 nM.
The figure for `O=C(NCc1cc(-c2ccc(-n3ccccc3=O)nc2)no1)c1ccc(Cl)s1` [Example 310, 5-Chloro-N-((3-(6-(2-oxopyridin-1(2H)-yl)pyridin-3-yl)isoxazol-5-yl)methyl)thiophene-2-carboxamide] is not above 100 nM.
`CN1CCN=C1c1ccc(-c2cc(CNC(=O)c3ccc(Cl)s3)on2)c(N(C)C)c1` [Example 95, 5-Chloro-thiophene-2-carboxylic acid {3-[2-dimethylamino-4-(1-methyl-4,5-dihydro-1H-imidazol-2-yl)-phenyl]-isoxazol-5-ylmethyl}-amide] gave an IC50 not above 100 nM.
The value for `N=C(c1ccc(-c2cc(CNC(=O)c3ccc(Cl)s3)no2)cc1)N1CCCC1` [Example 332, 5-Chloro-N-((5-(4-(imino(pyrrolidin-1-yl)methyl)phenyl)isoxazol-3-yl)methyl)thiophene-2-carboxamide] was not above 100 nM.
